Measurements reported in patent publication US9809573B2, “Substituted pyridine derivatives useful as GSK-3 inhibitors” (priority 2013, dated 2017).
Like-named read-outs stand apart in the source and are kept apart here.

Experiments:
[1] = target: GSK3α (Homo sapiens, UniProt P49840); test: biochemical
Method: (§1) The kinase assay was performed in V-bottom 384-well plates. […] The reaction was incubated at room temperature for 20 hours and terminated by adding 45 μl of 35 mM EDTA to each sample. The reaction mixture was analyzed on the Caliper LabChip3000 (Caliper, Hopkinton, Mass.) by electrophoretic separation of the unphosphorylated substrate and phosphorylated product. […] Compounds were dissolved at 10 mM in dimethylsulfoxide (DMSO) and evaluated at eleven concentrations. IC50 values were derived by non-linear regression analysis.

[2] = target: GSK3β (Homo sapiens, UniProt P49841); test: GSK3β kinase assay (Caliper LabChip3000, fluoresceinated peptide substrate); format: biochemical
GSK3β, sequence (P49841 whole entry, species assumed): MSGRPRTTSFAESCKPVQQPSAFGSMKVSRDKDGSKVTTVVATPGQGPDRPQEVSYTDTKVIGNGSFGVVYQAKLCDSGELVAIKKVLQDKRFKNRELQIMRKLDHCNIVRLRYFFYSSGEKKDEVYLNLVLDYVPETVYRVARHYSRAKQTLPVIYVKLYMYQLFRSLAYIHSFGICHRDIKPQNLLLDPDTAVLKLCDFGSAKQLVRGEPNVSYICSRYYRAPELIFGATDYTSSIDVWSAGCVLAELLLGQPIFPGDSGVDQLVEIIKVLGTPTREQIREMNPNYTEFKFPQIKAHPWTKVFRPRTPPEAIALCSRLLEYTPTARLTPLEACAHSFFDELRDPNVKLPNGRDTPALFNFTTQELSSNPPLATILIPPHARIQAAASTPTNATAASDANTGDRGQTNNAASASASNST
Method: as §1

[3] = second value of the cell, 250 pM enzyme, 20 uM ATP, 20 hours at room temperature, read-out: GSK3β/α (nM): GSK3α IC50
[4] = first value of the cell, 250 pM enzyme, 20 uM ATP, 20 hours at room temperature, read-out: GSK3β/α (nM): GSK3β IC50

GSK3α, sequence (P49840 whole entry, species assumed): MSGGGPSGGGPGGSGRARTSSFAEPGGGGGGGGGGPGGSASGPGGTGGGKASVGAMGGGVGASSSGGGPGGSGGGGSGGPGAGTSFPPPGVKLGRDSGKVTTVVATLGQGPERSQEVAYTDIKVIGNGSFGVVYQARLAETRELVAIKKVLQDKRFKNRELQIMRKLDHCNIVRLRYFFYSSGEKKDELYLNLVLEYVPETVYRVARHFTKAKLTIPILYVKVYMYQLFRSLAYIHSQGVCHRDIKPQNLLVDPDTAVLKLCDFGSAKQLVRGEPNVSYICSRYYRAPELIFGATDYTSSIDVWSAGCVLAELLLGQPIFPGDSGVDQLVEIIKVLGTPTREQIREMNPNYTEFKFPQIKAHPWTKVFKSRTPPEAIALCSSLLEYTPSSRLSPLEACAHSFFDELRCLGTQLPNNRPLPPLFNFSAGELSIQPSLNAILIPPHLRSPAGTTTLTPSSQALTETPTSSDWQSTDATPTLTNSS

2-((1,3-Trans)-3-chlorocyclobutanecarboxamido)-N-(4-phenylpyridin-3-yl)isonicotinamide [Example 220]
IC50 [1, 3]: 0.22 nM | IC50 [2, 4]: 0.37 nM

O=C(Nc1cncc(-c2cccc(F)c2F)c1)c1ccnc(NC(=O)C2CC2)c1 [Example 137, 2-(cyclopropanecarboxamido)-N-(5-(2,3-difluorophenyl)pyridin-3-yl)isonicotinamide]
IC50 [1]: 0.74 nM | IC50 [2]: 3.4 nM

O=C(Nc1cncc(-c2ccoc2)c1)c1ccnc(NC(=O)C2CC2)c1 [Example 121, 2-(cyclopropanecarboxamido)-N-(5-(furan-3-yl)pyridin-3-yl)isonicotinamide]
IC50 [1, 3]: 0.99 nM | IC50 [2, 4]: 2.4 nM

O=C(Nc1cncc(-c2cccc(F)c2)c1)c1ccnc(NC(=O)C2CC2)c1 [Example 126, 2-(cyclopropanecarboxamido)-N-(5-(3-fluorophenyl)pyridin-3-yl)isonicotinamide]
IC50 [1, 3]: 1.1 nM | IC50 [2, 4]: 2.5 nM

COc1cccc(-c2cncc(NC(=O)c3ccnc(NC(=O)C4CC4)c3)c2)c1F [Example 139, 2-(cyclopropanecarboxamido)-N-(5-(2-fluoro-3-methoxyphenyl)pyridin-3-yl)isonicotinamide]
IC50 [1, 3]: 0.81 nM | IC50 [2]: 3.7 nM

O=C(Nc1cncc(-c2ccsc2)c1)c1ccnc(NC(=O)C2CC2)c1 [Example 117, 2-(cyclopropanecarboxamido)-N-(5-(thiophen-3-yl)pyridin-3-yl)isonicotinamide]
IC50 [1, 3]: 1.9 nM | IC50 [2, 4]: 1.2 nM

O=C(Nc1cncc(-c2ccccn2)c1)c1ccnc(NC(=O)C2CC2)c1 [Example 128, N-([2,3′-bipyridin]-5′-yl)-2-(cyclopropanecarboxamido)isonicotinamide]
IC50 [1, 3]: 2.6 nM | IC50 [2, 4]: 0.5 nM

O=C(Nc1cncc(-c2ccccc2Cl)c1)c1ccnc(NC(=O)C2CC2)c1 [Example 127, N-(5-(2-chlorophenyl)pyridin-3-yl)-2-(cyclopropanecarboxamido)isonicotinamide]
IC50 [1, 3]: 0.54 nM | IC50 [2, 4]: 1.3 nM

O=C(Nc1cncc2c1CCCC2)c1ccnc(NC(=O)C2CC2)c1 [Example 21, 2-(Cyclopropanecarboxamido)-N-(5,6,7,8-tetrahydroisoquinolin-4-yl)isonicotinamide]
IC50 [1, 3]: 3.3 nM | IC50 [2, 4]: 13 nM

O=C(Nc1cncc(C2CCCC2)c1)c1ccnc(NC(=O)C2CC2)c1 [Example 132, N-(5-cyclopentylpyridin-3-yl)-2-(cyclopropanecarboxamido)isonicotinamide]
IC50 [1, 3]: 8 nM | IC50 [2, 4]: 4.1 nM

O=C(Nc1cncc(-c2cccc3cccnc23)c1)c1ccnc(NC(=O)C2CC2)c1 [Example 143, 2-(cyclopropanecarboxamido)-N-(5-(quinolin-8-yl)pyridin-3-yl)isonicotinamide]
IC50 [1, 3]: 35 nM | IC50 [2, 4]: 190 nM

CN(C)c1ccccc1-c1cncc(NC(=O)c2ccnc(NC(=O)C3CC3)c2)c1 [Example 154, 2-(cyclopropanecarboxamido)-N-(5-(2-(dimethylamino)phenyl)pyridin-3-yl)isonicotinamide]
IC50 [1, 3]: 18 nM | IC50 [2, 4]: 40 nM

CC(C)c1ccccc1-c1cncc(NC(=O)c2ccnc(NC(=O)C3CC3)c2)c1 [Example 134, 2-(cyclopropanecarboxamido)-N-(5-(2-isopropylphenyl)pyridin-3-yl)isonicotinamide]
IC50 [2, 4]: 2.7 nM

2-((1,3-Cis)-3-chlorocyclobutanecarboxamido)-N-(4-phenylpyridin-3-yl)isonicotinamide [Example 221]
IC50 [1, 3]: 0.09 nM | IC50 [2, 4]: 0.16 nM

O=C(Nc1cncc(-c2cccnc2)c1)c1ccnc(NC(=O)C2CC2)c1 [Example 125, N-([3,3′-bipyridin]-5-yl)-2-(cyclopropanecarboxamido)isonicotinamide]
IC50 [1, 3]: 0.86 nM | IC50 [2, 4]: 2 nM

O=C(Nc1cncc(-c2c(F)cccc2F)c1)c1ccnc(NC(=O)C2CC2)c1 [Example 141, 2-(cyclopropanecarboxamido)-N-(5-(2,6-difluorophenyl)pyridin-3-yl)isonicotinamide]
IC50 [1, 3]: 4.3 nM | IC50 [2, 4]: 21 nM

O=C(Nc1cnccc1-c1ccccc1)c1ccnc(NC(=O)C2CC(Cl)C2)c1 (stereo not shown) [Example 215, 2-(3-Cholorocyclobutanecarboxamido)-N-(4-phenylpyridin-3-yl)isonicotinamide]
IC50 [1, 3]: 0.25 nM | IC50 [2, 4]: 0.4 nM

O=C(Nc1cncc(-c2ccccc2OC(F)(F)F)c1)c1ccnc(NC(=O)C2CC2)c1 [Example 149, 2-(cyclopropanecarboxamido)-N-(5-(2-(trifluoromethoxy)phenyl)pyridin-3-yl)isonicotinamide]
IC50 [1, 3]: 1.75 nM | IC50 [2, 4]: 8.5 nM

O=C(Nc1cncc(-c2cccc(Cl)c2F)c1)c1ccnc(NC(=O)C2CC2)c1 [Example 140, N-(5-(3-chloro-2-fluorophenyl)pyridin-3-yl)-2-(cyclopropanecarboxamido)isonicotinamide]
IC50 [1, 3]: 2.8 nM | IC50 [2, 4]: 13 nM

O=C(Nc1cncc(-c2csc3ccccc23)c1)c1ccnc(NC(=O)C2CC2)c1 [Example 129]
IC50 [1, 3]: 7 nM | IC50 [2, 4]: 5.1 nM

Cc1ncc(-c2cncc(NC(=O)c3ccnc(NC(=O)C4CC4)c3)c2)s1 [Example 159, 2-(cyclopropanecarboxamido)-N-(5-(2-methylthiazol-5-yl)pyridin-3-yl)isonicotinamide]
IC50 [1, 3]: 1.9 nM | IC50 [2, 4]: 4.7 nM

O=C1CCC(C(=O)Nc2cc(C(=O)Nc3cnccc3-c3ccccc3)ccn2)C1 (stereo not shown) [Example 229, 2-(3-Oxocyclopentanecarboxamido)-N-(4-phenylpyridin-3-yl)isonicotinamide]
IC50 [2, 4]: 1.6 nM

O=C(Nc1cncc(C(F)(F)F)c1)c1ccnc(NC(=O)C2CC2)c1 [Example 150, 2-(cyclopropanecarboxamido)-N-(5-(trifluoromethyl)pyridin-3-yl)isonicotinamide]
IC50 [1, 3]: 17 nM | IC50 [2, 4]: 88 nM

Cc1cscc1-c1cncc(NC(=O)c2ccnc(NC(=O)C3CC3)c2)c1 [Example 130, 2-(cyclopropanecarboxamido)-N-(5-(4-methylthiophen-3-yl)pyridin-3-yl)isonicotinamide]
IC50 [1, 3]: 0.41 nM | IC50 [2, 4]: 2.5 nM

O=C(Nc1cncc(-c2cccc(Cl)c2Cl)c1)c1ccnc(NC(=O)C2CC2)c1 [Example 138, 2-(cyclopropanecarboxamido)-N-(5-(2,3-dichlorophenyl)pyridin-3-yl)isonicotinamide]
IC50 [1, 3]: 1.8 nM | IC50 [2, 4]: 10.5 nM

O=C(Nc1cncc(-c2ccc(Cl)cc2)c1)c1ccnc(NC(=O)C2CC2)c1 [Example 133, N-(5-(4-chlorophenyl)pyridin-3-yl)-2-(cyclopropanecarboxamido)isonicotinamide]
IC50 [1, 3]: 4.4 nM | IC50 [2, 4]: 3.3 nM

CCCOc1ccccc1-c1cncc(NC(=O)c2ccnc(NC(=O)C3CC3)c2)c1 [Example 146, 2-(cyclopropanecarboxamido)-N-(5-(2-propoxyphenyl)pyridin-3-yl)isonicotinamide]
IC50 [1, 3]: 3.4 nM | IC50 [2, 4]: 4.5 nM

N#Cc1cscc1-c1cncc(NC(=O)c2ccnc(NC(=O)C3CC3)c2)c1 [Example 131, N-(5-(4-cyanothiophen-3-yl)pyridin-3-yl)-2-(cyclopropanecarboxamido)isonicotinamide]
IC50 [1, 3]: 0.76 nM | IC50 [2, 4]: 0.41 nM

CC(=O)c1ccccc1-c1cncc(NC(=O)c2ccnc(NC(=O)C3CC3)c2)c1 [Example 144, N-(5-(2-acetylphenyl)pyridin-3-yl)-2-(cyclopropanecarboxamido)isonicotinamide]
IC50 [1, 3]: 15 nM | IC50 [2, 4]: 55 nM

N#Cc1cc(F)ccc1-c1ccncc1NC(=O)c1ccnc(NC(=O)C2CC2)c1 [Example 89, N-(4-(2-cyano-4-fluorophenyl)pyridin-3-yl)-2-(cyclopropanecarboxamido)isonicotinamide]
IC50 [1, 3]: 190 nM | IC50 [2, 4]: 470 nM

O=C(Nc1cncc(-c2cc(Cl)ccc2F)c1)c1ccnc(NC(=O)C2CC2)c1 [Example 153, N-(5-(5-chloro-2-fluorophenyl)pyridin-3-yl)-2-(cyclopropanecarboxamido)isonicotinamide]
IC50 [1, 3]: 1.6 nM | IC50 [2, 4]: 5.3 nM

O=C1CC(C(=O)Nc2cc(C(=O)Nc3cnccc3-c3ccccc3)ccn2)C1 [Example 218, 2-(3-Oxocyclobutanecarboxamido)-N-(4-phenylpyridin-3-yl)isonicotinamide]
IC50 [2, 4]: 3.9 nM

Cc1cc(-c2cncc(NC(=O)c3ccnc(NC(=O)C4CC4)c3)c2)c(C)s1 [Example 135, 2-(cyclopropanecarboxamido)-N-(5-(2,5-dimethylthiophen-3-yl)pyridin-3-yl)isonicotinamide]
IC50 [2, 4]: 2.7 nM

Cn1cc(-c2cncc(NC(=O)c3ccnc(NC(=O)C4CC4)c3)c2)cn1 [Example 152, 2-(cyclopropanecarboxamido)-N-(5-(1-methyl-1H-pyrazol-4-yl)pyridin-3-yl)isonicotinamid]
IC50 [1, 3]: 1.4 nM | IC50 [2, 4]: 4.9 nM

CC(C)Oc1ccccc1-c1cncc(NC(=O)c2ccnc(NC(=O)C3CC3)c2)c1 [Example 136, 2-(cyclopropanecarboxamido)-N-(5-(2-isopropoxyphenyl)pyridin-3-yl)isonicotinamide]
IC50 [1, 3]: 5.4 nM | IC50 [2, 4]: 19 nM

O=C(Nc1cnccc1-c1ccc(C(F)(F)F)cc1C(F)(F)F)c1ccnc(NC(=O)C2CC2)c1 [Example 65, N-(4-(2,4-bis(trifluoromethyl)phenyl)pyridin-3-yl)-2-(cyclopropanecarboxamido)isonicotinamide]
IC50 [1, 3]: 25 nM | IC50 [2, 4]: 29 nM

Cc1ccccc1-c1cncc(NC(=O)c2ccnc(NC(=O)C3CC3)c2)c1 [Example 122, 2-(cyclopropanecarboxamido)-N-(5-(o-tolyl)pyridin-3-yl)isonicotinamide]
IC50 [1, 3]: 3.3 nM | IC50 [2, 4]: 7.3 nM
